Experimental data published in patent publication US10512637B2, “Use of inhibitor of cystine-glutamate transporter” (CHINA MEDICAL UNIVERSITY, priority 2015, dated 2019).

Columns and labels:
alcohol-dependent mice = test: Free-choice two-bottle drinking after chronic alcohol exposure; assay type: in vivo, C57BL/6J mice; details: WT mice after chronic alcohol exposure; treatment for 7 days; sulfasalazine 15 mg/kg/day i.p., sorafenib 30 mg/kg i.p., regorafenib 30 mg/kg i.p.; compared to control vehicle (DMSO); FIG. 2B
Experimental: Data are means±SD (n=6-8). *P<0.0001 compared to water. ^#P<0.0001 compared to WT mice or vehicle treatment.
(§1) The concentration of alcohol was increased every fourteenth day. […] Intakes were recorded every day.

[1] = tested on: cocaine-dependent WT mice; test: Free-choice two-bottle drinking after chronic cocaine exposure; assay type: in vivo, C57BL/6J mice; details: WT mice after chronic cocaine exposure (15 mg/kg i.p., 7 days); sulfasalazine 15 mg/kg/day i.p. for 6 days during free-choice drinking; compared to vehicle
wild type cortical cells = test: Annexin V apoptosis assay in primary cortical cells exposed to alcohol or cocaine; assay type: cell-based, C57BL/6J mouse; details: alcohol or cocaine incubation, 18 hours; sulfasalazine 500 μM, sorafenib 10 μM, regorafenib 10 μM; compared to vehicle (DMSO); FIG. 6
Experimental: Data are means±SD (n=3). *P<0.001 compared to vehicle group.
Primary cortical cells were prepared from cerebral cortices of wild-type C57BL/6J or xCT homozygous knockout (xCT KO) mouse embryos in embryonic day 17 as previously described in Shyu, W. C., et al., Secretoneurin promotes neuroprotection and neuronal plasticity via the Jak2/Stat3 pathway in murine models of stroke. J Clin Invest, 2008. 118(1): p. 133-48.
Annexin V staining was performed to determine cell apoptosis using the Annexin V-FITC Apoptosis Detection Kit (Sigma-Aldrich) for 10 minutes at room temperature according to the manufacturer's instructions, and then flow cytometric analysis was performed.

[2] = tested on: TUNEL-positive cells in frontal cortex; test: TUNEL staining of brain after chronic alcohol exposure; assay type: in vivo, C57BL/6J mice; details: WT mice; treatment for 14 days; sulfasalazine 15 mg/kg/day i.p., sorafenib 30 mg/kg i.p., regorafenib 30 mg/kg i.p.; compared to vehicle; FIG. 4B
Experimental: as §1

## O=C(O)c1cc(/N=N/c2ccc(S(=O)(=O)Nc3ccccn3)cc2)ccc1O [sulfasalazine]
alcohol-dependent mice
  daily alcohol consumption during free-choice drinking: significantly attenuated the daily alcohol consumption
[1]
  cocaine preference and craving behaviours: fully inhibited cocaine preference and craving behaviours
Wild type cortical cells
  substance-induced apoptosis in cortical cells: significantly inhibited substance-induced apoptosis

## CNC(=O)c1cc(Oc2ccc(NC(=O)Nc3ccc(Cl)c(C(F)(F)F)c3)c(F)c2)ccn1 [regorafenib]
alcohol-dependent mice
  daily alcohol consumption during free-choice drinking: significantly attenuated the daily alcohol consumption
[2]
  chronic alcohol exposure-induced apoptosis (TUNEL-positive cells) in brain: inhibited apoptosis
Wild type cortical cells
  substance-induced apoptosis in cortical cells: significantly inhibited substance-induced apoptosis

## CNC(=O)c1cc(Oc2ccc(NC(=O)Nc3ccc(Cl)c(C(F)(F)F)c3)cc2)ccn1 [sorafenib]
alcohol-dependent mice
  daily alcohol consumption during free-choice drinking: significantly attenuated the daily alcohol consumption
[2]
  chronic alcohol exposure-induced apoptosis (TUNEL-positive cells) in brain: inhibited apoptosis
Wild type cortical cells
  substance-induced apoptosis in cortical cells: significantly inhibited substance-induced apoptosis
